From ChEMBL document CHEMBL1139660, “Imidazo[1,2-b][1,2,4]triazines as alpha2/alpha3 subtype selective GABA A agonists for the treatment of anxiety” (Bioorg Med Chem Lett, 2006)

What was measured:
[1] = target: T1, GABA-A receptor; alpha-5/beta-3/gamma-2 (Homo sapiens, UniProt P18507+P28472+P31644); experiment: Displacement of [3H]Ro 15-1788 from recombinant human GABA-Aalpha5 receptor plus beta-3-gamma-2 expressed in L(tk-) cells; type: cell-based
T1 sequence (P18507 whole entry): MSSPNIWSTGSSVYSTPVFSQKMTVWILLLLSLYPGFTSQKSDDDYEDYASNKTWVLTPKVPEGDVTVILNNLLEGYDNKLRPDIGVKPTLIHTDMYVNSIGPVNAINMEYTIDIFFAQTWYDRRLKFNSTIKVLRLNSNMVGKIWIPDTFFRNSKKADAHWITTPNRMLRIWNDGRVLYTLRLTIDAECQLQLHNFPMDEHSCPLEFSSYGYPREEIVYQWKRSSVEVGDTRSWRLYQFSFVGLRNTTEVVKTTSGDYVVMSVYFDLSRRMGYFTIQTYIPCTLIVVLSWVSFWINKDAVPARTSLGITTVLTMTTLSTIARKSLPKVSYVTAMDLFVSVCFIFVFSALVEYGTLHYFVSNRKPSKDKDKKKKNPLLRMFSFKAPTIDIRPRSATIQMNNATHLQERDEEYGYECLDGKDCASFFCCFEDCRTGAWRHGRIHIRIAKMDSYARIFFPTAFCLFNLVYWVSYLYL
T1 sequence (P28472 whole entry): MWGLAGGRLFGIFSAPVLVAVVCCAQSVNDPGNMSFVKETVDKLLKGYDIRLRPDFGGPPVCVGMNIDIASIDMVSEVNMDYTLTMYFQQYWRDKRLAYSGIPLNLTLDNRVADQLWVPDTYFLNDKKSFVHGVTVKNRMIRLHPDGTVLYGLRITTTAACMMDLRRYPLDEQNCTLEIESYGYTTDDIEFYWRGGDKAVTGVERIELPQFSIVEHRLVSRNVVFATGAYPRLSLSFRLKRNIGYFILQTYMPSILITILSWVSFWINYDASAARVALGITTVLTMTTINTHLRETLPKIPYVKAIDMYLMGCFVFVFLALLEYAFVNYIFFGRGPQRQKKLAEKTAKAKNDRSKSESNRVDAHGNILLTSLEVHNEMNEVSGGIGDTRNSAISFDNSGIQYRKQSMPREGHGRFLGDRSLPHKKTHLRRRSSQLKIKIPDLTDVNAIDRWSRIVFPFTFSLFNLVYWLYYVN
T1 sequence (P31644 whole entry): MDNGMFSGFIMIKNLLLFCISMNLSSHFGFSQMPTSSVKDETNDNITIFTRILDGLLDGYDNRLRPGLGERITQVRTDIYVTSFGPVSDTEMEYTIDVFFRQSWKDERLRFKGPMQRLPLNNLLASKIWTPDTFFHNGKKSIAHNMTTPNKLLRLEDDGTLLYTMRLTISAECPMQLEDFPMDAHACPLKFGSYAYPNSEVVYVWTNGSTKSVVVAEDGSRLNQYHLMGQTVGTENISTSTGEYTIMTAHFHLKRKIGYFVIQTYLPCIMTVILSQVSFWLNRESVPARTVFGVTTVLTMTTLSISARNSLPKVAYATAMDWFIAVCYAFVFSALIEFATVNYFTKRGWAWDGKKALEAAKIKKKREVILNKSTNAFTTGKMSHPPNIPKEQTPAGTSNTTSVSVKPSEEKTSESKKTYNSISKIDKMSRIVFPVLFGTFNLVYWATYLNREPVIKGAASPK

[2] = target: T2, GABA-A receptor; alpha-1/beta-3/gamma-2 (Homo sapiens) (UniProt P14867+P18507+P28472); experiment: Efficacy against recombinant human GABA-Aalpha1 receptor plus beta-3-gamma-2 expressed in L(tk-) cells by modulation of chloride ion flux relative to chlordiazepoxide; type: cell-based
[3] = target: T3, GABA-A receptor; alpha-3/beta-3/gamma-2 (Homo sapiens) (UniProt P18507+P28472+P34903); experiment: Efficacy against recombinant human GABA-Aalpha3 receptor plus beta-3-gamma-2 expressed in L(tk-) cells by modulation of chloride ion flux relative to chlordiazepoxide; type: functional, cell-based
[4] = target: T4, GABA-A receptor; alpha-1/beta-3/gamma-2 (Homo sapiens, UniProt P14867+P18507+P28472); experiment: Displacement of [3H]Ro 15-1788 from recombinant human GABA-Aalpha1 receptor plus beta3gamma2 expressed in mouse L(tk-) cells; type: cell-based
T4 sequence (P14867 whole entry): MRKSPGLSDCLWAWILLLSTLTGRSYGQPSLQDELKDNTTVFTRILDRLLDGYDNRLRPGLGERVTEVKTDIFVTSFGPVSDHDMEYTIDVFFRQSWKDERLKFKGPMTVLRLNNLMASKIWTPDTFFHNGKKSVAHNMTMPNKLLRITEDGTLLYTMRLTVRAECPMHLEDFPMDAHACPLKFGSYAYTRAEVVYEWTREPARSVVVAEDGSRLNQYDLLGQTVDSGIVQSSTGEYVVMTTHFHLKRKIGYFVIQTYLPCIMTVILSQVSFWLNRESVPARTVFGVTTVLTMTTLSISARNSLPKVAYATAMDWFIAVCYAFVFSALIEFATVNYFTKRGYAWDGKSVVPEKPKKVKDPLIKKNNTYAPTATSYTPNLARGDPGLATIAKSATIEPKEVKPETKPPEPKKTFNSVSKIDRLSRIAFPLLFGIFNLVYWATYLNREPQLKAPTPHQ
T4 sequence (P18507 whole entry): T1 sequence (P18507 whole entry)
T4 sequence (P28472 whole entry): T1 sequence (P28472 whole entry)

[5] = target: T5, GABA-A receptor; alpha-3/beta-3/gamma-2 (Homo sapiens, UniProt P18507+P28472+P34903); experiment: Displacement of [3H]Ro 15-1788 from recombinant human GABA-Aalpha3 receptor plus beta-3-gamma-2 expressed in L(tk-) cells; type: cell-based
T5 sequence (P18507 whole entry): T1 sequence (P18507 whole entry)
T5 sequence (P28472 whole entry): T1 sequence (P28472 whole entry)
T5 sequence (P34903 whole entry): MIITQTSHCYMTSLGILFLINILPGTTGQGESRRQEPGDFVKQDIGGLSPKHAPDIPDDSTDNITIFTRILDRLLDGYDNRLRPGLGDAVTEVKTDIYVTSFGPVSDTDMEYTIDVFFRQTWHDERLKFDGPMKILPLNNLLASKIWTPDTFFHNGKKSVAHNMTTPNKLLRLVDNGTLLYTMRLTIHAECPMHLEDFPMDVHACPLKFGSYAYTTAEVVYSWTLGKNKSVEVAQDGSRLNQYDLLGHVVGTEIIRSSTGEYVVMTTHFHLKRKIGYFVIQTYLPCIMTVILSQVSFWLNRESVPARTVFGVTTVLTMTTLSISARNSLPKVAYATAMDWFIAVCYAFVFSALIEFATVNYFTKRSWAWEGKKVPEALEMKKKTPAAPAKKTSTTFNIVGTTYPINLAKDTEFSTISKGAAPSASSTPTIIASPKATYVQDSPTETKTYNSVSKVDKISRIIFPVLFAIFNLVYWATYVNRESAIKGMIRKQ

[6] = target: T6, GABA-A receptor; alpha-2/beta-3/gamma-2 (Homo sapiens, UniProt P18507+P28472+P47869); experiment: Displacement of [3H]Ro 15-1788 from recombinant human GABA-Aalpha2 receptor plus beta-3-gamma-2 expressed in mouse L(tk-) cells; type: cell-based
T6 sequence (P18507 whole entry): T1 sequence (P18507 whole entry)
T6 sequence (P28472 whole entry): T1 sequence (P28472 whole entry)
T6 sequence (P47869 whole entry): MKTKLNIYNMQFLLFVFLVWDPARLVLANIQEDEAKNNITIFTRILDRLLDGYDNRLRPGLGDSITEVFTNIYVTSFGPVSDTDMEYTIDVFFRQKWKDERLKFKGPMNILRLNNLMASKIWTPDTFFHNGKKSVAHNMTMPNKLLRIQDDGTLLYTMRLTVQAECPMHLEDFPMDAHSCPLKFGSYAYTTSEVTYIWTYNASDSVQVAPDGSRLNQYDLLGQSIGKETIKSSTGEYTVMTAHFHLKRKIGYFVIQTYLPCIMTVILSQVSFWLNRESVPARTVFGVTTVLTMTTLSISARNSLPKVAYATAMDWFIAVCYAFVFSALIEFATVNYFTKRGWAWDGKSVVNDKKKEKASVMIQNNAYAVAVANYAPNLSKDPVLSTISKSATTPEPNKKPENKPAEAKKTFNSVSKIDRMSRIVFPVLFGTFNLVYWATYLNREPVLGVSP

[7] = target: T2, GABA-A receptor; alpha-1/beta-3/gamma-2 (Homo sapiens); experiment: Efficacy against recombinant human GABA-Aalpha1 receptor plus beta-3-gamma-2 expressed in L(tk-) cells by whole cell patch clamp method; type: functional, cell-based
[8] = target: T3, GABA-A receptor; alpha-3/beta-3/gamma-2 (Homo sapiens); experiment: Efficacy against recombinant human GABA-Aalpha3 receptor plus beta-3-gamma-2 expressed in L(tk-) cells by whole cell patch clamp method relative to chlordiazepoxide; type: functional, cell-based
[9] = target: GABA-A receptor; alpha-2/beta-3/gamma-2 (Homo sapiens) (UniProt P18507+P28472+P47869); experiment: Efficacy against recombinant human GABA-Aalpha2 receptor plus beta-3-gamma-2 expressed in L(tk-) cells by whole cell patch clamp method relative to chlordiazepoxide; type: functional, cell-based
[10] = target: GABA-A receptor; alpha-5/beta-3/gamma-2 (Homo sapiens) (UniProt P18507+P28472+P31644); experiment: Efficacy against recombinant human GABA-Aalpha5 receptor plus beta3gamma2 expressed in L(tk-) cells by whole cell patch clamp method relative to chlordiazepoxide; type: functional, cell-based
Rattus norvegicus = experiment: Plasma clearance in Sprague-Dawley rat at 1 mg/kg, iv or 1 mg/kg, po; type: organism-based
[11] = Volume of distribution in Sprague-Dawley rat at 1 mg/kg, iv or 1 mg/kg, po; type: ADME, organism-based; settings: in vivo, read-out: Vdss
[12] = Oral bioavailability in Beagle dog at 1 mg/kg, iv or 1 mg/kg, po; type: ADME, organism-based, Canis lupus familiaris; settings: in vivo
[13] = Plasma clearance in Beagle dog at 1 mg/kg, iv or 1 mg/kg, po; type: ADME, organism-based, Canis lupus familiaris
[14] = Half life in Beagle dog at 1 mg/kg, iv or 1 mg/kg, po; type: ADME, organism-based, Canis lupus familiaris; settings: in vivo
[15] = Volume of distribution in Beagle dog at 1 mg/kg, iv or 1 mg/kg, po; type: ADME, organism-based, Canis lupus familiaris; settings: in vivo, read-out: Vdss

## CC(C)(O)c1ccn2c(-c3ccc(F)c(-c4ncccc4C#N)c3)cnc2n1
[1]
  Ki: 0.67 nM
[2]
  Efficacy: 0.26
[3]
  Efficacy: 0.52
[4]
  Ki: 1.43 nM
[5]
  Ki: 3.64 nM

## CC(C)(O)c1cnn2c(-c3ccc(F)c(-c4ccncc4)c3)cnc2n1
[1]
  Ki: 0.5 nM
[4]
  Ki: 0.55 nM
[6]
  Ki: 0.92 nM
[5]
  Ki: 0.52 nM
[7]
  Efficacy: 0.06

## CC(C)(O)c1ccn2c(-c3ccc(F)c(-c4ncc(F)cc4F)c3)cnc2n1
[1]
  Ki: 1.13 nM
[2]
  Efficacy: 0.18
[3]
  Efficacy: 0.21
[4]
  Ki: 1.79 nM
[5]
  Ki: 3.76 nM

## CC(C)(O)c1cnn2c(-c3ccc(F)c(-c4ccncc4C#N)c3)cnc2n1
[1]
  Ki: 0.32 nM
[4]
  Ki: 0.76 nM
[6]
  Ki: 1.54 nM
[5]
  Ki: 1.06 nM
[7]
  Efficacy: 0
[8]
  Efficacy: 0.37
[9]
  Efficacy: 0.23
[10]
  Efficacy: 0.41

## CC(C)(O)c1cnn2c(-c3ccc(F)c(-c4cccnc4)c3)cnc2n1
[1]
  Ki: 0.5 nM
[4]
  Ki: 0.81 nM
[5]
  Ki: 1.63 nM
[7]
  Efficacy: 0
[8]
  Efficacy: 0.24

## CC(C)(O)c1cnn2c(-c3ccc(F)c(-c4ncccc4F)c3)cnc2n1
[1]
  Ki: 1.57 nM
[4]
  Ki: 2.01 nM
[5]
  Ki: 3.42 nM
[7]
  Efficacy: 0.24
[8]
  Efficacy: 0.52

## CC(C)(O)c1ccn2c(-c3ccc(F)c(-c4ccncc4C#N)c3)cnc2n1
[1]
  Ki: 0.14 nM
[2]
  Efficacy: 0.3
[3]
  Efficacy: 0.59
[4]
  Ki: 0.6 nM
[5]
  Ki: 0.28 nM

## CC(C)(O)c1cnn2c(-c3ccc(F)c(-c4ccc(F)cn4)c3)cnc2n1
[1]
  Ki: 1.24 nM
[4]
  Ki: 1.45 nM
[6]
  Ki: 2.3 nM
[5]
  Ki: 2.77 nM
[7]
  Efficacy: 0.15
[8]
  Efficacy: 0.5

## CC(C)(O)c1ccn2c(-c3ccc(F)c(-c4ccncc4)c3)cnc2n1
[1]
  Ki: 0.31 nM
[2]
  Efficacy: 0.18
[3]
  Efficacy: 0.47
[4]
  Ki: 0.68 nM
[5]
  Ki: 2.25 nM
[7]
  Efficacy: 0.42

## CC(C)(O)c1cnn2c(-c3ccc(F)c(-c4ncncc4C#N)c3)cnc2n1
[4]
  Ki: 0.67 nM
[5]
  Ki: 3.3 nM
[7]
  Efficacy: 0.01
[8]
  Efficacy: 0.34

## CC(C)(O)c1ccn2c(-c3ccc(F)c(-c4cccnc4)c3)cnc2n1
[2]
  Efficacy: 0.06
[3]
  Efficacy: 0.5
[7]
  Efficacy: 0.05
[8]
  Efficacy: 0.53
Rattus norvegicus
  CL (mL.min-1.kg-1): 9.1
[11]
  Vd: 1 L/kg
[12]
  bioavailability: 46%
[13]
  clearance: 8.1 mL/min/kg
[14]
  half-life: 1 h
[15]
  Vd: 0.6 L/kg

## CC(C)(O)c1ccn2c(-c3ccc(F)c(-c4ncccc4F)c3)cnc2n1
[1]
  Ki: 1.24 nM
[2]
  Efficacy: 0.44
[3]
  Efficacy: 0.68
[4]
  Ki: 0.8 nM
[5]
  Ki: 0.42 nM

## CC(C)(O)c1ccn2c(-c3ccc(F)c(-c4ccc(F)cn4)c3)cnc2n1
[1]
  Ki: 0.42 nM
[2]
  Efficacy: 0.38
[3]
  Efficacy: 0.57
[4]
  Ki: 1.6 nM
[5]
  Ki: 1.94 nM
[7]
  Efficacy: 0.4
